*1 amine or outer side, *2 acyl side, *3 side chain or, on linkers, in order; H or OH if unused. Where a SMILES comes first, the peptide text is derived from it. [ ]: non-standard residue; d: D form. Gly(N(CH2)2(3-indolyl)) = O=C(O)CNCCc1c[nH]c2ccccc12; Gly(N-(CH2)3-guanidino) = N=C(N)NCCCNCC(=O)O; X1 = O=C(CN(CCc1ncc[nH]1)[*:1])[*:2]; Gly(N(CH2)3NH2) = NCCCNCC(=O)O; N(iPr)Gly = CC(C)NCC(=O)O
system: human IgG (hIgG); test: Batch mode IgG binding to peptoid-functionalized Toyopearl AF-amino 650 M resin; conditions: polyclonal hIgG 0.5 mg/mL in PBS, 2 mg hIgG per mL resin, 45 min at 22° C., elution 0.1 M glycine pH 2.5, ELISA and SDS-PAGE (FIG. 1, FIG. 2)
Text: FIG. 1. Batch mode IgG adsorption to Toyopearl AF-amino 650 M resins functionalized with different peptoid ligands. IgG in the flow-through fractions (black) indicate the percent hIgG that was not adsorbed to the resin relative to the mass of hIgG loaded. The elution fractions (grey) indicate the percent of human IgG that was bound in phosphate buffered saline (PBS) and eluted (0.1 M glycine, pH 2.5) relative to the initial concentration of IgG that was loaded. Concentrations of hIgG in all fractions were determined by ELISA. The unmodified resin served as the negative control. Binding trials were done in duplicate for each resin.
FIG. 2. Reducing SDS-PAGE analysis of elution and flow-through fractions from hIgG adsorption experiments. Lanes designated “FT” and “Elute” are the flow-through and elution fractions, respectively. The lane marked “hIgG loaded” is the pre-adsorbed hIgG solution that was incubated with each resin tested. The heavy and light chains of hIgG migrate at ˜55 and ˜25 kDa, respectively, on reducing SDS-PAGE gels.
IgG Binding to Resin: The ability of the peptoid affinity ligands to bind human IgG (hIgG) was tested in batch mode. A 50% slurry of the resin was prepared, of which 200 μl (˜100 mg resin) was transferred into the spin column. The resin was throughly washed with dH2O and equilibrated with PBS prior to hIgG exposure. Polyclonal hIgG (Equitech-Bio) was diluted to 0.5 mg/mL with PBS. After equilibration, a 0.5 mg/mL solution of hIgG was added to the resin to achieve a ratio of 2 mg hIgG per mL of resin, and allowed to incubate for 45 min at 22° C. with vigorous shaking. After incubation, the resin was centrifuged at 500×g for 2 min in which the filtrate of this step was collected and labeled as “flow-through” fraction. The resin was subsequently washed 2× with PBS. Elution buffer (0.1 M glycine, pH 2.5) was added to the resin and mixed vigorously for 10 min at 22° C. After centrifugation (500×g for 2 min) bound hIgG was eluted from the resin and collected in the filtrate. The amount of hIgG found in the flow-through and elution fraction was determined using an ELISA-based quantitative assay (Bethyl, Cat. No. E80-104). hIgG yields were determined as the ratio of hIgG mass in the elution fraction and hIgG mass in the loading solution (FIG. 1). SDS-PAGE analysis of all collected fractions was carried out to determine product purity and evaluate the ligand selectivity (FIG. 2).

ability of the peptoid affinity ligands to bind human IgG (hIgG) to the resin | SMILES
useful for binding IgG to the resin | CC(C)N(CC(=O)O)C(=O)CN(CCc1c[nH]c2ccccc12)C(=O)CNC(=O)CN(CCCNC(=N)N)C(=O)CN(CCc1c[nH]c2ccccc12)C(=O)CNCCc1ncc[nH]1 [Ligand G001] (H-[X1][Gly(N(CH2)2(3-indolyl))][Gly(N-(CH2)3-guanidino)]G[Gly(N(CH2)2(3-indolyl))][N(iPr)Gly]-OH)
useful for binding IgG to the resin | N=C(N)NCCCN(CC(=O)NCC(=O)O)C(=O)CN(CCc1c[nH]c2ccccc12)C(=O)CNCCc1ncc[nH]1 [Ligand G003]
useful for binding IgG to the resin | N=C(N)NCCCN(CC(=O)O)C(=O)CN(CCc1c[nH]c2ccccc12)C(=O)CNCCc1ncc[nH]1 [Ligand G005]
useful for binding IgG to the resin | CC(C)N(CC(=O)O)C(=O)CN(CCc1c[nH]c2ccccc12)C(=O)CNC(=O)CN(CCCN)C(=O)CN(CCc1c[nH]c2ccccc12)C(=O)CNCCc1ncc[nH]1 [Ligand G012] (H-[X1][Gly(N(CH2)2(3-indolyl))][Gly(N(CH2)3NH2)]G[Gly(N(CH2)2(3-indolyl))][N(iPr)Gly]-OH)
